# Source: PubChem BioAssay AID1919008 (Molecular Pharmacology Branch, DTP, NCI, 2023)
# Test system: DMS-114 complex spheroids with HUVEC/MSC, growth % test/control
# Test: Anticancer human tumor DMS-114 cell line growth inhibition [AhR];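 note: spheroids exposed to agents for 7 days before readout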;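 for viability, T/C: 100% = DMSO vehicle control wells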
# Conditions: for IC50: curve of first compound; for viability, T/C: stronger effect = lower value
# Summary of the method: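 Agents were dosed in half-log steps down from roughly clinical Cmax, or from 10 microM where Cmax was unknown, alone and with AhR antagonists. Read-out: percent test/control growth of tumor spheroids containing HUVEC and MSC stromal cells.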
# [1] = second compound 0.1 µM, first compound 0.0316 µM
# [2] = second compound 0.1 µM, first compound 0.1 µM
# [3] = second compound 0.1 µM, first compound 0.316 µM
# [4] = second compound 0.1 µM, first compound 1 µM
# [5] = second compound 0.1 µM, first compound 3.16 µM
# [6] = second compound 0.1 µM, first compound 10 µM
# [7] = second compound 0.316 µM, first compound 0.0316 µM
# [8] = second compound 0.316 µM, first compound 0.1 µM
# [9] = second compound 0.316 µM, first compound 0.316 µM
# [10] = second compound 0.316 µM, first compound 1 µM
# [11] = second compound 0.316 µM, first compound 3.16 µM
# [12] = second compound 0.316 µM, first compound 10 µM
# [13] = second compound 1 µM, first compound 0.0316 µM
# [14] = second compound 1 µM, first compound 0.1 µM
# [15] = second compound 1 µM, first compound 0.316 µM
# [16] = second compound 1 µM, first compound 1 µM
# [17] = second compound 1 µM, first compound 3.16 µM
# [18] = second compound 1 µM, first compound 10 µM
# [19] = second compound 3.16 µM, first compound 0.0316 µM
# [20] = second compound 3.16 µM, first compound 0.1 µM
# [21] = second compound 3.16 µM, first compound 0.316 µM
# [22] = second compound 3.16 µM, first compound 1 µM
# [23] = second compound 3.16 µM, first compound 3.16 µM
# [24] = second compound 3.16 µM, first compound 10 µM
# [25] = second compound 10 µM, first compound 0.0316 µM
# [26] = second compound 10 µM, first compound 0.1 µM
# [27] = second compound 10 µM, first compound 0.316 µM
# [28] = second compound 10 µM, first compound 1 µM
# [29] = second compound 10 µM, first compound 3.16 µM
# [30] = second compound 10 µM, first compound 10 µM
structure (smiles),measurement,setting,value
CC1(C)CCC(CN2CCN(c3ccc(C(=O)NS(=O)(=O)c4ccc(NCC5CCOCC5)c([N+](=O)[O-])c4)c(Oc4cnc5[nH]ccc5c4)c3)CC2)=C(c2ccc(Cl)cc2)C1 + Cc1cncc(-c2nc(NCCc3c[nH]c4ccccc34)c3ncn(C(C)C)c3n2)c1,IC50,second compound 0.1 µM,> 10000 nM
same,IC50,second compound 0.316 µM,> 10000 nM
same,IC50,second compound 1 µM,> 10000 nM
same,IC50,second compound 3.16 µM,> 10000 nM
same,IC50,second compound 10 µM,6390 nM
same,"viability, T/C",[1],91.9%
same,"viability, T/C",[2],92.7%
same,"viability, T/C",[3],101%
same,"viability, T/C",[4],106%
same,"viability, T/C",[5],94.9%
same,"viability, T/C",[6],110%
same,"viability, T/C",[7],91.5%
same,"viability, T/C",[8],95.7%
same,"viability, T/C",[9],95.5%
same,"viability, T/C",[10],107%
same,"viability, T/C",[11],102%
same,"viability, T/C",[12],98.9%
same,"viability, T/C",[13],102%
same,"viability, T/C",[14],102%
same,"viability, T/C",[15],108%
same,"viability, T/C",[16],97.6%
same,"viability, T/C",[17],110%
same,"viability, T/C",[18],101%
same,"viability, T/C",[19],96.8%
same,"viability, T/C",[20],86.8%
same,"viability, T/C",[21],93.8%
same,"viability, T/C",[22],103%
same,"viability, T/C",[23],96.3%
same,"viability, T/C",[24],84.7%
same,"viability, T/C",[25],50.9%
same,"viability, T/C",[26],60.2%
same,"viability, T/C",[27],58.3%
same,"viability, T/C",[28],47.8%
same,"viability, T/C",[29],45%
same,"viability, T/C",[30],53.7%
CCN(c1cc(-c2ccc(CN3CCOCC3)cc2)cc(C(=O)NCc2c(C)cc(C)[nH]c2=O)c1C)C1CCOCC1 + Cc1cncc(-c2nc(NCCc3c[nH]c4ccccc34)c3ncn(C(C)C)c3n2)c1,IC50,second compound 0.1 µM,> 3000 nM
same,IC50,second compound 0.316 µM,> 3000 nM
same,IC50,second compound 1 µM,> 3000 nM
same,IC50,second compound 3.16 µM,> 3000 nM
same,IC50,second compound 10 µM,361 nM
same,"viability, T/C","second compound 0.1 µM, first compound 0.00949 µM",92.9%
same,"viability, T/C","second compound 0.1 µM, first compound 0.03 µM",97.4%
same,"viability, T/C","second compound 0.1 µM, first compound 0.0949 µM",92.9%
same,"viability, T/C","second compound 0.1 µM, first compound 0.3 µM",92.6%
same,"viability, T/C","second compound 0.1 µM, first compound 0.949 µM",82.7%
same,"viability, T/C","second compound 0.1 µM, first compound 3 µM",70.8%
same,"viability, T/C","second compound 0.316 µM, first compound 0.00949 µM",94.9%
same,"viability, T/C","second compound 0.316 µM, first compound 0.03 µM",89.3%
same,"viability, T/C","second compound 0.316 µM, first compound 0.0949 µM",109%
same,"viability, T/C","second compound 0.316 µM, first compound 0.3 µM",90.5%
same,"viability, T/C","second compound 0.316 µM, first compound 0.949 µM",78.9%
same,"viability, T/C","second compound 0.316 µM, first compound 3 µM",59%
same,"viability, T/C","second compound 1 µM, first compound 0.00949 µM",99.1%
same,"viability, T/C","second compound 1 µM, first compound 0.03 µM",101%
same,"viability, T/C","second compound 1 µM, first compound 0.0949 µM",95.9%
same,"viability, T/C","second compound 1 µM, first compound 0.3 µM",91.2%
same,"viability, T/C","second compound 1 µM, first compound 0.949 µM",76.6%
same,"viability, T/C","second compound 1 µM, first compound 3 µM",68.8%
same,"viability, T/C","second compound 3.16 µM, first compound 0.00949 µM",99.3%
same,"viability, T/C","second compound 3.16 µM, first compound 0.03 µM",97.8%
same,"viability, T/C","second compound 3.16 µM, first compound 0.0949 µM",90%
same,"viability, T/C","second compound 3.16 µM, first compound 0.3 µM",92%
same,"viability, T/C","second compound 3.16 µM, first compound 0.949 µM",74.8%
same,"viability, T/C","second compound 3.16 µM, first compound 3 µM",63.5%
same,"viability, T/C","second compound 10 µM, first compound 0.00949 µM",58.2%
same,"viability, T/C","second compound 10 µM, first compound 0.03 µM",55.2%
same,"viability, T/C","second compound 10 µM, first compound 0.0949 µM",54.3%
same,"viability, T/C","second compound 10 µM, first compound 0.3 µM",50.9%
same,"viability, T/C","second compound 10 µM, first compound 0.949 µM",45.7%
same,"viability, T/C","second compound 10 µM, first compound 3 µM",46.4%
Cn1ncnc1C1c2n[nH]c(=O)c3cc(F)cc(c23)NC1c1ccc(F)cc1 (stereo not given) + Cc1cncc(-c2nc(NCCc3c[nH]c4ccccc34)c3ncn(C(C)C)c3n2)c1,IC50,second compound 0.1 µM,> 100 nM
same,IC50,second compound 0.316 µM,> 100 nM
same,IC50,second compound 1 µM,> 100 nM
same,IC50,second compound 3.16 µM,> 100 nM
same,IC50,second compound 10 µM,< 0.316 nM
same,"viability, T/C","second compound 0.1 µM, first compound 0.000316 µM",103%
same,"viability, T/C","second compound 0.1 µM, first compound 0.001 µM",93.9%
same,"viability, T/C","second compound 0.1 µM, first compound 0.00316 µM",100%
same,"viability, T/C","second compound 0.1 µM, first compound 0.01 µM",105%
same,"viability, T/C",[1],98.2%
same,"viability, T/C",[2],75.5%
same,"viability, T/C","second compound 0.316 µM, first compound 0.000316 µM",87.5%
same,"viability, T/C","second compound 0.316 µM, first compound 0.001 µM",89.6%
same,"viability, T/C","second compound 0.316 µM, first compound 0.00316 µM",88.1%
same,"viability, T/C","second compound 0.316 µM, first compound 0.01 µM",87.1%
same,"viability, T/C",[7],84.7%
same,"viability, T/C",[8],80.2%
same,"viability, T/C","second compound 1 µM, first compound 0.000316 µM",94.1%
same,"viability, T/C","second compound 1 µM, first compound 0.001 µM",99%
same,"viability, T/C","second compound 1 µM, first compound 0.00316 µM",96.8%
same,"viability, T/C","second compound 1 µM, first compound 0.01 µM",93.6%
same,"viability, T/C",[13],93.3%
same,"viability, T/C",[14],81.3%
same,"viability, T/C","second compound 3.16 µM, first compound 0.000316 µM",85.4%
same,"viability, T/C","second compound 3.16 µM, first compound 0.001 µM",95.4%
same,"viability, T/C","second compound 3.16 µM, first compound 0.00316 µM",89.3%
same,"viability, T/C","second compound 3.16 µM, first compound 0.01 µM",77.3%
same,"viability, T/C",[19],79.2%
same,"viability, T/C",[20],74.9%
same,"viability, T/C","second compound 10 µM, first compound 0.000316 µM",47.6%
same,"viability, T/C","second compound 10 µM, first compound 0.001 µM",50.7%
same,"viability, T/C","second compound 10 µM, first compound 0.00316 µM",42.7%
same,"viability, T/C","second compound 10 µM, first compound 0.01 µM",41.6%
same,"viability, T/C",[25],37.6%
same,"viability, T/C",[26],45.2%
NS(=O)(=O)OCC1CC(n2ccc3c(NC4CCc5ccccc54)ncnc32)CC1O (stereo not given) + Cc1cncc(-c2nc(NCCc3c[nH]c4ccccc34)c3ncn(C(C)C)c3n2)c1,IC50,second compound 0.1 µM,50.3 nM
same,IC50,second compound 0.316 µM,45.8 nM
same,IC50,second compound 1 µM,42 nM
same,IC50,second compound 3.16 µM,40.5 nM
same,IC50,second compound 10 µM,< 31.6 nM
same,"viability, T/C",[1],59.4%
same,"viability, T/C",[2],36%
same,"viability, T/C",[3],17.1%
same,"viability, T/C",[4],7.31%
same,"viability, T/C",[5],5.19%
same,"viability, T/C",[6],4.45%
same,"viability, T/C",[7],56.9%
same,"viability, T/C",[8],35.4%
same,"viability, T/C",[9],16.1%
same,"viability, T/C",[10],6.55%
same,"viability, T/C",[11],5.26%
same,"viability, T/C",[12],3.74%
same,"viability, T/C",[13],55%
same,"viability, T/C",[14],34.7%
same,"viability, T/C",[15],17.6%
same,"viability, T/C",[16],6.95%
same,"viability, T/C",[17],4.06%
same,"viability, T/C",[18],4.6%
same,"viability, T/C",[19],54.9%
same,"viability, T/C",[20],32.2%
same,"viability, T/C",[21],15.8%
same,"viability, T/C",[22],4.55%
same,"viability, T/C",[23],4.39%
same,"viability, T/C",[24],2.86%
same,"viability, T/C",[25],42.2%
same,"viability, T/C",[26],24.6%
same,"viability, T/C",[27],12.2%
same,"viability, T/C",[28],3.49%
same,"viability, T/C",[29],2.11%
same,"viability, T/C",[30],1.61%
